In this assay the test system is TNFa-induced NF-kB reporter cells, inhibition. Nature of the assay: analog potency on TNFa NF-kB signaling – cell-based, set 3, SAR follow-up (AID 2801).

As a reminder, the IC50 is the concentration that inhibits the measured activity by half. On to `CCCCn1c(SCC(=O)Nc2nnc(CC)s2)nc2c1c(=O)n(C)c(=O)n2C`, for which the IC50 is 13 µM.

The values above are taken from PubChem BioAssay AID2801 (Sanford-Burnham Center for Chemical Genomics, 2010).
